Laboratory results taken from PMC11842024, “Reversible male contraception by targeted inhibition of serine/threonine kinase 33” (Science (New York, N.Y.), 2024).
Blank lines part the entries; values can stand above or below the compound they belong to.

Columns and labels:
[1] = target: T1, STK33 (Homo sapiens, UniProt Q9BYT3); assay: NanoBRET target engagement intracellular kinase assay; type: cell-based; parameters: host or cells: HEK293 (HEK293T cultured); details: for IC50: HEK293 cells, 2 hours incubation
T1 sequence (Q9BYT3 whole entry): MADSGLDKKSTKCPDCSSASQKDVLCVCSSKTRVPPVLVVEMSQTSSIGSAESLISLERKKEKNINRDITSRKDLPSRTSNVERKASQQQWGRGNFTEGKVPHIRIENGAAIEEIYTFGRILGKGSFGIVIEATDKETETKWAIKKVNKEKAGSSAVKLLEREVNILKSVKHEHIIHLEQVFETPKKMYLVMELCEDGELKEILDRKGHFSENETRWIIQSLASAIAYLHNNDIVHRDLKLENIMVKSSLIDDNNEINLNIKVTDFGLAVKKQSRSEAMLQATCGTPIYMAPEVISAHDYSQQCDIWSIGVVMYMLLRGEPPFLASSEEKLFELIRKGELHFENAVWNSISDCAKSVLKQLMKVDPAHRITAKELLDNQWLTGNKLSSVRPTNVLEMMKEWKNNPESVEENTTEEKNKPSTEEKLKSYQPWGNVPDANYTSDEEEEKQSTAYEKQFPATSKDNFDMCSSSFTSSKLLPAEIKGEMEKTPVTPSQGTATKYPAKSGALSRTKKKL
Procedure: (§1) NanoBRET Target Engagement intracellular kinase assay. HEK293T cells were cultured in […]
(§2) The cell line underwent authentication by short tandem repeat (STR) profiling at Cytogenetics and Cell Authentication Core (CCAC) at MD Anderson Cancer Center. NanoBRET Target Engagement intracellular kinase assay, K-10 assay (Cat. # N2641), K-9 assay (Cat. # N2631), transfection reagent FuGENE HD (Cat. # E2311), transfection carrier DNA (Cat. # E4881), NanoLuc-STK33 fusion vector (Cat. # NV2111), NanoLuc-RET fusion vector (Cat. # NV1951), NanoLuc-CLK1 fusion vector (Cat. # NV1131), NanoLuc-CLK2 fusion vector (Cat. # NV1141), and NanoLuc-CLK4 fusion vector (Cat. # NV1151) were purchased from Promega. The measurement of test compound engagement with cellular target protein was performed in a 384-well format according to manufacturer’s instructions. HEK293 cells were transiently transfected with NanoLuc (STK33, RET, CLK1, CLK2, and CLK4) fusion vectors. After 36 hours of transfection, cells were treated with a fixed concentration of tracer (recommended by Promega) followed by compounds (inhibitors) for 2 hours of incubation. To determine the test compound […]
(§3) 0.4 nM at a fixed tracer concentration. Staurosporine was measured in parallel as a positive control.
(§4) Freshly prepared NanoBRET Nano-Glo substrate plus extracellular NanoLuc inhibitor was then added to initiate the subsequent bioluminescence resonance energy transfer (BRET) measurements using a CLARIOstar Plus BMG LABTECH plate reader. Data analysis was done by measuring the ratio of acceptor emission to donor emission (BRET ratio) and normalized by subtracting no-tracer-control-background. IC50 values were obtained by nonlinear regression using a four-parameter equation in GraphPad Prism 7 (San Diego, CA).

[2] = target: T1, STK33; assay: LanthaScreen binding assay (ThermoFisher SelectScreen); parameters: purchased SelectScreen Services (ThermoFisher)
From the text: (§5) In vitro biochemical assays. Several small molecule assays were outsourced to SelectScreen Services (ThermoFisher) for STK33 and for off-target kinases (data sets are available on demand).
(§6) These assays are LanthaScreen (binding assay) and Z’-LYTE (activity assay). Dose-responses were done with at least 5 different concentrations in duplicates, and parameters were optimized by calculations described below and provided with standard errors.
(§7) Calculation of Kd values for kinase inhibitors that bind to the ATP pocket of a kinase from LanthaScreen binding data. DynaFit (71) was used to fit complex equilibria where a tracer is displaced by a dilution series of a kinase inhibitor. This method relies on the concentration of inhibitor, as well as the concentration of kinase and tracer, and Kd of the tracer. The latter three parameters are tabulated by ThermoFisher for each kinase in the LanthaScreen assay panel. […]
Since Kd and Ki values are defined the same way, in other words, Kd = [E] [I] / [EI] = Ki, Kd and Ki values can be compared. […]

[3] = Metabolic stability assay in liver microsomes (HLM); type: in vitro ADME, human; details: 2.0 µM, 0.5 mg protein/mL, NADPH, data >60 min is an extrapolated estimate; for half-life at 2 µM: human, liver microsomes, read-out: Metabolic stability HLM, t1/2
Procedure: (§8) Metabolic stability assay in liver microsomes. The stabilities of CDD-2110, CDD-2211, CDD-2212, CDD-2807, and CDD-3348 in liver microsomes with/without Uridine Diphosphate Glucuronic Acid (UDP-GA, a cofactor of UDP-glucuronosyltransferases) were performed and half-life was calculated as previously reported (36). Briefly, each CDD compound (2.0 μM) was incubated in the mouse or human liver microsomes (0.5 mg protein/mL) at 37°C in 1× PBS fortified with NADPH (1.0 mM) and with/without UDP-GA (2.5 mM). Alamethicin (25 µg/mL) as a pore forming agent was used for the glucuronidation (Table S2A). The samples were collected at specific time-points 0, 30, and 60 min in duplicate. The reactions were terminated by adding equivalent volume of ice-cold methanol (CH3OH) and vortexed. After centrifugation at 15000 g for 10 min, 3.0 μL of the supernatant was analyzed by Thermo TSQ Quantis MS coupled with a Thermo Vanquish UHPLC (San Jose, CA) equipped with a Luna C18 column (1 mm × 50 mm, 1.6 µm, Phenomenex, Torrance, CA). The column temperature was maintained at 40°C. CDD-2807 was monitored under the selected reaction monitoring (SRM) mode coupled with a positive electrospray ionization (ESI) source. The SRM ion pairs were 447→321 for CDD-2807.

[4] = Metabolic stability assay in liver microsomes (MLM); type: in vitro ADME, mouse; details: 2.0 µM, 0.5 mg protein/mL, NADPH, data >60 min is an extrapolated estimate; for half-life at 2 µM: mouse, liver microsomes, read-out: Metabolic stability MLM, t1/2
Procedure: as §8

[5] = target: T2, CLK1 (Homo sapiens, UniProt P49759); assay: NanoBRET target engagement intracellular kinase assay; type: cell-based; parameters: host or cells: HEK293 (HEK293T cultured); details: for IC50: HEK293 cells, 2 hours incubation; for Fold NanoBRET IC50 CLK1 over STK33 (in parentheses): selectivity vs STK33
T2 sequence (P49759 whole entry): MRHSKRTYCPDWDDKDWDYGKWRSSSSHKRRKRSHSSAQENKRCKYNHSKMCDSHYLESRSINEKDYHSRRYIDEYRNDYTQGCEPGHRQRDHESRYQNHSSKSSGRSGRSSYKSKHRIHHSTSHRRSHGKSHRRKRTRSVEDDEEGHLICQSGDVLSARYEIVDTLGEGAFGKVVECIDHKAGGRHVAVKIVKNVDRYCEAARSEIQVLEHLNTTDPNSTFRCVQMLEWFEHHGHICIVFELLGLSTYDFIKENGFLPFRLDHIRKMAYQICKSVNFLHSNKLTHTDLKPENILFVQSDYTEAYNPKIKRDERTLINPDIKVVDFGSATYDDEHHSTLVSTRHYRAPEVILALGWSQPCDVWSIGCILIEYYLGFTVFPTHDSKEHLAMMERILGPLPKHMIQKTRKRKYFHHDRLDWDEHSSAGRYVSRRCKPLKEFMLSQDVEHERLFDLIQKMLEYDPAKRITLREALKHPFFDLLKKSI
Procedure: as §1, §2, §3, §4

[6] = target: T3, RET (Homo sapiens, UniProt P07949); assay: as above; type: cell-based; parameters: host or cells: HEK293 (HEK293T cultured); details: for IC50: HEK293 cells, 2 hours incubation; for Fold NanoBRET IC50 RET over STK33 (in parentheses): selectivity vs STK33
T3 sequence (P07949 29-1114): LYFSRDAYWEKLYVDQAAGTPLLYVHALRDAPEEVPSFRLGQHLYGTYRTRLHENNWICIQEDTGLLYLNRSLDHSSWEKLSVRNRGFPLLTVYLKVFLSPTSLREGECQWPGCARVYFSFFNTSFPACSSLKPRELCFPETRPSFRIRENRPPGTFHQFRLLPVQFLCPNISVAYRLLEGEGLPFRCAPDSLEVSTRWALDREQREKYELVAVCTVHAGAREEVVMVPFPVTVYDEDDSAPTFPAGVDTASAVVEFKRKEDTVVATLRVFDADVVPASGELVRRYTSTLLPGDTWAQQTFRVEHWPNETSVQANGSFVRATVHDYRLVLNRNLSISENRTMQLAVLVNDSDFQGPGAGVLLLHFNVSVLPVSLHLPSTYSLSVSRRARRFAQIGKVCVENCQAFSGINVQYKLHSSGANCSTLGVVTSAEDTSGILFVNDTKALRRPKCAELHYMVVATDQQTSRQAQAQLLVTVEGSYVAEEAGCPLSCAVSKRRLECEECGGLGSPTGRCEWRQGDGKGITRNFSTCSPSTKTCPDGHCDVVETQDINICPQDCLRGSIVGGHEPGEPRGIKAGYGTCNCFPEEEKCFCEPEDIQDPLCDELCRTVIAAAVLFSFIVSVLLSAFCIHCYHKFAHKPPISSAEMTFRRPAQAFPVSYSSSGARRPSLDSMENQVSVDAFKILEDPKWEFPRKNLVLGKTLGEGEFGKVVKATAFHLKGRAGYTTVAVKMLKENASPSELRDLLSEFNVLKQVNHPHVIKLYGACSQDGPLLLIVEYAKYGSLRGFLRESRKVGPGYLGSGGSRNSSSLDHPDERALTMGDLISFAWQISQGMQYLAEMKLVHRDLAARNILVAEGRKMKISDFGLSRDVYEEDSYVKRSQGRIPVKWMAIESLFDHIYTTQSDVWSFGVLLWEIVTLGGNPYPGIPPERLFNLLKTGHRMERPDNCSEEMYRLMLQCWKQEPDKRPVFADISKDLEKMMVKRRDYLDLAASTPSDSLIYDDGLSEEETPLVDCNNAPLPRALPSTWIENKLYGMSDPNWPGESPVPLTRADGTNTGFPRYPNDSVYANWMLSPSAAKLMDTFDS
Procedure: as §1, §2, §3, §4

[7] = target: T4, CLK2 (Homo sapiens, UniProt P49760); assay: as above; type: cell-based; parameters: host or cells: HEK293 (HEK293T cultured); details: for IC50: HEK293 cells, 2 hours incubation; for Fold NanoBRET IC50 CLK2 over STK33 (in parentheses): selectivity vs STK33
T4 sequence (P49760 whole entry): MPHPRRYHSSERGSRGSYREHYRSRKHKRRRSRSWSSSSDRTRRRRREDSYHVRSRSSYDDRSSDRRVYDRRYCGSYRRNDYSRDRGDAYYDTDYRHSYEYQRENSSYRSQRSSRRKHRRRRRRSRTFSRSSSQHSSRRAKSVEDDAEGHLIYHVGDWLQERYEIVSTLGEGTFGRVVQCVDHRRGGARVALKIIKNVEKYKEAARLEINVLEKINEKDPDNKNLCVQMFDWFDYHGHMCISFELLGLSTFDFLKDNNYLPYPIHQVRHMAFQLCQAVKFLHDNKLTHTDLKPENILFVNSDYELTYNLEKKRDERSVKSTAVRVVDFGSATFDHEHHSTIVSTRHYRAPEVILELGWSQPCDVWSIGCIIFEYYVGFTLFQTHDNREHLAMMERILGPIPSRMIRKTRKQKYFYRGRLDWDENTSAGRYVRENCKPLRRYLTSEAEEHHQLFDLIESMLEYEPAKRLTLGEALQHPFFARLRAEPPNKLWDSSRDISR
Procedure: as §1, §2, §3, §4

[8] = target: T5, CLK4 (Homo sapiens, UniProt Q9HAZ1); assay: as above; type: cell-based; parameters: host or cells: HEK293 (HEK293T cultured); details: for IC50: HEK293 cells, 2 hours incubation; for Fold NanoBRET IC50 CLK4 over STK33 (in parentheses): selectivity vs STK33
T5 sequence (Q9HAZ1 whole entry): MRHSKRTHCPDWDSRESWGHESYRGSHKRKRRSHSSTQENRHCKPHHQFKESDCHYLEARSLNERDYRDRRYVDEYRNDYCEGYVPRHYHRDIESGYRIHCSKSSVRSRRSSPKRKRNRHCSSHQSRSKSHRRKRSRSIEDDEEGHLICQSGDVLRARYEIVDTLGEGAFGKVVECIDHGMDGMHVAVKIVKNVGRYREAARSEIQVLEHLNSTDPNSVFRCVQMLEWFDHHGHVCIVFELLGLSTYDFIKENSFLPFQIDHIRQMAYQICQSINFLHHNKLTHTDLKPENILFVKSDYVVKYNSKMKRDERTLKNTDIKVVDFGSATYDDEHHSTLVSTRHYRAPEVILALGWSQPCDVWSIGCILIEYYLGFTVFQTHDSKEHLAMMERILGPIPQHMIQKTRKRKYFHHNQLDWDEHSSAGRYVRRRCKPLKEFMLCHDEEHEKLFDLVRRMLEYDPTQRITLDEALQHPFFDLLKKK
Procedure: as §1, §2, §3, §4

[9] = target: T5, CLK4; assay: LanthaScreen binding assay (ThermoFisher SelectScreen); parameters: purchased SelectScreen Services (ThermoFisher)
From the text: as §5, §6, §7

[10] = target: T2, CLK1; assay: Z'-LYTE activity assay (ThermoFisher SelectScreen); type: biochemical; parameters: purchased SelectScreen Services (ThermoFisher); details: [ATP] = Kmapp
From the text: as §5
(§9) These assays are LanthaScreen (binding assay) and Z’-LYTE (activity assay). Dose-responses were done with at least 5 different concentrations in duplicates, and parameters were optimized by calculations described below and provided with standard errors. […]
(§10) Calculation of Ki values for kinase inhibitors from Z’-LYTE inhibition data. The Morrison equation with [ATP] = Kmapp for competitive inhibition (GraphPad Prism 7, San Diego, CA) was used to get Ki values. Since Kd and Ki values are defined the same way, in other words, Kd = [E] [I] / [EI] = Ki, Kd and Ki values can be compared. […]

[11] = target: T3, RET; assay: Z'-LYTE activity assay (ThermoFisher SelectScreen); type: biochemical; parameters: purchased SelectScreen Services (ThermoFisher); details: [ATP] = Kmapp
From the text: as §5, §9, §10

[12] = target: T4, CLK2; assay: Z'-LYTE activity assay (ThermoFisher SelectScreen); type: biochemical; parameters: purchased SelectScreen Services (ThermoFisher); details: [ATP] = Kmapp
From the text: as §5, §9, §10

[13] = target: T1, STK33; assay: Kinase assay screening against STK33 at 500 nM; type: biochemical; parameters: purchased SelectScreen Services (ThermoFisher)

Compound: CN(C)C1CCN(C(=O)c2ccc3[nH]nc(C#Cc4cccc(-c5ccccc5)c4)c3c2)C1 (centres unmarked) [Compound S9]
IC50 [1]: 289 nM | Kd [2]: 9.9 ± 2.3 nM

Compound: NC1CCN(C(=O)c2ccc3[nH]nc(C#Cc4ccccc4-c4ccccc4)c3c2)C1 (centres unmarked) [Compound S1]
Metabolic stability HLM, t1/2 [3]: 277 min | IC50 [1]: 46 nM | Metabolic stability MLM, t1/2 [4]: 42 min

Compound: CN(C)C1CCN(C(=O)c2ccc3c(c2)c(C#Cc2ccccc2-c2ccccc2)nn3C)C1 (centres unmarked) [Compound S8]
kinase assay screening against STK33 [13]: not passing

Compound: O=C(c1ccc2[nH]nc(C#Cc3ccccc3-c3ccccc3)c2c1)N1CCC2(CCCCN2)C1 (centres unmarked) [Compound S3]
IC50 [1]: 52 nM

Compound: O=C(c1ccc2[nH]nc(C#Cc3ccccc3-c3ccccc3)c2c1)N1CCC2(CCCNC2)C1 (centres unmarked) [Compound S4]
IC50 [1]: 517 nM

Compound: CN(C)C1CCN(C(=O)c2ccc3[nH]nc(C#Cc4ccc(-c5ccccc5)cc4)c3c2)C1 (centres unmarked) [Compound S10]
IC50 [1]: 8710 nM | Kd [2]: 17.7 ± 0.7 nM

More lines, now with the values ahead:

half-life at 2 µM [3]: 13 min | IC50 [5]: 6730 nM | Fold NanoBRET IC50 CLK1 over STK33 (in parentheses) [5]: 40 X | IC50 [6]: 6410 nM | Fold NanoBRET IC50 RET over STK33 (in parentheses) [6]: 38 X | IC50 [7]: 2530 nM | Fold NanoBRET IC50 CLK2 over STK33 (in parentheses) [7]: 15 X | IC50 [8]: 3850 nM | Fold NanoBRET IC50 CLK4 over STK33 (in parentheses) [8]: 23 X | selectivity toward STK33 compared to CLK1, CLK2, CLK4, and RET [1]: > 10 fold | IC50 [1]: 169 nM | half-life at 2 µM [4]: 14 min | Kd [2]: 0.06 nM | Kd [9]: 26.2 ± 1.5 nM | Ki [10]: 477 ± 34 nM | Ki [11]: 5.6 ± 0.5 nM | Ki [12]: 58.3 ± 3.3 nM
Compound: CNC(=O)CCC1CCN(C(=O)C2CCN(C3CCN(C(=O)c4ccc5[nH]nc(C#Cc6ccccc6-c6ccccc6)c5c4)C3)CC2)CC1 (centres unmarked) [CDD-3348]

half-life at 2 µM [3]: 10 min | IC50 [5]: 115 nM | Fold NanoBRET IC50 CLK1 over STK33 (in parentheses) [5]: 23 X | IC50 [6]: 78 nM | Fold NanoBRET IC50 RET over STK33 (in parentheses) [6]: 16 X | IC50 [7]: 48 nM | Fold NanoBRET IC50 CLK2 over STK33 (in parentheses) [7]: 10 X | IC50 [8]: 187 nM | Fold NanoBRET IC50 CLK4 over STK33 (in parentheses) [8]: 37 X | selectivity toward STK33 compared to CLK1, CLK2, CLK4, and RET [1]: > 10 fold | IC50 [1]: 5 nM | half-life at 2 µM [4]: 7 min | Kd [2]: 0.018 nM | Kd [9]: 2.5 ± 0.2 nM | Ki [10]: 38.8 ± 5.5 nM | Ki [11]: 0.47 ± 0.05 nM | Ki [12]: 5.4 ± 0.4 nM
Compound: CN(C)[C@@H]1CCN(C(=O)c2ccc3[nH]nc(C#Cc4ccccc4-c4ccccc4)c3c2)C1 [CDD-2211]
